Experimental data published in the NIST ThermoML archive (doi:10.1021/acs.jced.8b00176).

Test: xn = mol fraction of the nth substance listed
Conditions: 100 kPa, Liquid; for viscosity: Falling or rolling sphere viscometry; for speed of sound: Frequency=3 MHz, Single path-length method; for mass density: Vibrating tube method

CCCCn1cc[n+](C)c1.O=S(=O)([O-])C(F)(F)F [1-butyl-3-methylimidazolium trifluoromethanesulfonate] + CN(C)C=O
Conditions | mass density, 298.15 K [kg/m3] | mass density, 303.15 K [kg/m3] | mass density, 308.15 K [kg/m3] | speed of sound, 298.15 K [m/s] | speed of sound, 303.15 K [m/s] | speed of sound, 308.15 K [m/s] | viscosity, 298.15 K [mPa·s] | viscosity, 303.15 K [mPa·s] | viscosity, 308.15 K [mPa·s]
x1 = 0.1087 | 1042.02 | 1037.25 | 1032.47 | 1449.2 | 1432.1 | 1415.2 | 1.8 | 1.67 | 1.55
x1 = 0.203 | 1099.89 | 1095.22 | 1090.53 | 1437.7 | 1421.9 | 1406 | 3.67 | 3.23 | 2.93
x1 = 0.2978 | 1142.86 | 1138.3 | 1133.72 | 1425.7 | 1410.9 | 1395.9 | 5.22 | 4.67 | 4.2
x1 = 0.409 | 1181.65 | 1177.22 | 1172.78 | 1415 | 1401.2 | 1387.2 | 8.68 | 7.62 | 6.73
x1 = 0.4969 | 1206.07 | 1201.73 | 1197.38 | 1409.2 | 1396 | 1382.9 | 13.24 | 11.4 | 9.92
x1 = 0.603 | 1230.69 | 1226.44 | 1222.2 | 1403 | 1390.5 | 1378.1 | 20.91 | 17.79 | 15.23
x1 = 0.699 | 1249.54 | 1245.37 | 1241.2 | 1399.1 | 1387 | 1375 | 32.59 | 27.14 | 22.89
x1 = 0.809 | 1268.59 | 1264.5 | 1260.4 | 1396.7 | 1384.8 | 1373.3 | 52.15 | 42.41 | 35.16
x1 = 0.8928 | 1281.63 | 1277.59 | 1273.54 | 1395 | 1383.5 | 1372.1 | 68.08 | 54.9 | 44.83
x1 = 1 | 1297.46 | 1293.46 | 1289.47 | 1393.2 | 1382.8 | 1371.7 | 82.38 | 66.69 | 52.86
